Data reported in PubChem BioAssay (NCI).
Values joined by “and” are separate entries in the source; they are usually repeats but may differ in a detail not shown here. Equal values may be shown once.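 Following 48 hours of exposure in 96-well plates, responses at five concentrations were used to interpolate endpoints linearly. GI50 = concentration required for 50% inhibition of growth. TGI: concentration producing complete growth inhibition.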

What was measured:
Assay in all cases: NCI tumour cell line growth inhibition, 48 h
786-0 renal = system: 786-0 renal
ACHN renal = system: ACHN renal
EKVX NSCLC = system: EKVX NSCLC
KM12 colon = system: KM12 colon
MALME-3M melanoma = system: MALME-3M melanoma
RPMI-8226 leukemia = system: RPMI-8226 leukemia
RXF 393 renal = system: RXF 393 renal
BT-549 breast = system: BT-549 breast
DU-145 prostate = system: DU-145 prostate
NCI/ADR-RES ovarian = system: NCI/ADR-RES ovarian

## Cc1cc(Br)cc(C)c1NC(=O)C(=O)CC(=O)c1sc(-n2nc(-c3ccccc3)cc2-c2ccccc2)nc1C
786-0 renal
  TGI: > 100 µM
ACHN renal
  TGI: > 100 µM
EKVX NSCLC
  TGI: > 100 µM
KM12 colon
  TGI: > 100 µM
MALME-3M melanoma
  TGI: > 100 µM
RPMI-8226 leukemia
  TGI: > 100 µM
RXF 393 renal
  TGI: > 100 µM

## COc1ccc(/C=C2/CCCC/C2=N/O)cc1
786-0 renal
  TGI: > 100 µM
ACHN renal
  TGI: > 100 µM
EKVX NSCLC
  TGI: > 100 µM
KM12 colon
  TGI: > 100 µM
MALME-3M melanoma
  TGI: > 100 µM
RPMI-8226 leukemia
  TGI: > 100 µM
RXF 393 renal
  TGI: > 100 µM

## Cc1ccc2c(c1)NC(c1ccc(C(=O)O)cc1)c1cccn1-2 (centres undefined)
786-0 renal
  TGI: 43.1 µM
ACHN renal
  TGI: 42.6 µM
BT-549 breast
  TGI: > 100 µM
DU-145 prostate
  TGI: 71.4 µM
EKVX NSCLC
  TGI: > 100 µM
KM12 colon
  TGI: > 100 µM
RPMI-8226 leukemia
  TGI: > 100 µM
RXF 393 renal
  TGI: 50.2 µM

## Cc1ccc(S(=O)(=O)N2CCCSCCSCCCSCC2)cc1
786-0 renal
  TGI: > 100 µM
BT-549 breast
  TGI: > 100 µM
DU-145 prostate
  TGI: > 100 µM
EKVX NSCLC
  TGI: > 100 µM
KM12 colon
  TGI: > 100 µM
NCI/ADR-RES ovarian
  TGI: > 100 µM

## Cn1nc(-c2ccccc2NC(=O)C(F)(F)F)c(=O)n(C)c1=S
786-0 renal
  TGI: > 100 µM
ACHN renal
  TGI: 77.5 µM
EKVX NSCLC
  TGI: 86.5 µM
KM12 colon
  TGI: 80.9 µM
MALME-3M melanoma
  TGI: > 100 µM
RXF 393 renal
  TGI: > 100 µM

## CNC(=O)OCc1nc(SC(C)C)n(C)c1COC(=O)NC
786-0 renal
  TGI: > 100 µM
ACHN renal
  TGI: > 100 µM
EKVX NSCLC
  TGI: > 100 µM
KM12 colon
  TGI: > 100 µM
MALME-3M melanoma
  TGI: > 100 µM
NCI/ADR-RES ovarian
  TGI: > 100 µM
RPMI-8226 leukemia
  TGI: > 100 µM
RXF 393 renal
  TGI: > 100 µM

## CCOC(=O)/C(C1=N[C@H](C(=O)OCC)CS1)=C(\C)O
786-0 renal
  TGI: > 100 µM
ACHN renal
  TGI: > 100 µM
EKVX NSCLC
  TGI: > 100 µM
KM12 colon
  TGI: > 100 µM
MALME-3M melanoma
  TGI: > 100 µM
RPMI-8226 leukemia
  TGI: > 100 µM
RXF 393 renal
  TGI: > 100 µM

## COc1ccc(-c2oc3cc(O)c(OC)c(O)c3c(=O)c2OC2OC(CO)C(O)C(O)C2O)cc1 (centres undefined)
786-0 renal
  TGI: > 100 µM
ACHN renal
  TGI: > 100 µM
EKVX NSCLC
  TGI: > 100 µM
KM12 colon
  TGI: > 100 µM
RPMI-8226 leukemia
  TGI: > 100 µM

## Cn1ncc2cc3c(Nc4ccc(Cl)cc4)cccc3nc21
786-0 renal
  TGI: > 100 µM
ACHN renal
  TGI: 72.5 µM
EKVX NSCLC
  TGI: 88 µM
KM12 colon
  TGI: 35.6 µM
MALME-3M melanoma
  TGI: 56.3 µM
RPMI-8226 leukemia
  TGI: 34.2 µM
RXF 393 renal
  TGI: 37.6 µM

## CC(=O)O[C@H]1C(=O)[C@@]2(C)C([C@H](OC(=O)c3ccccc3)[C@]3(O)C[C@H](OC(=O)[C@H](O)[C@H](NC(=O)c4ccccc4)c4ccc(Cl)cc4)C(C)=C1C3(C)C)C1(OC(C)=O)CO[C@@H]1C[C@@H]2O (some centres undefined)
786-0 renal
  TGI: 28.1 µM
ACHN renal
  GI50: 1.66 µM
  TGI: > 100 µM
EKVX NSCLC
  GI50: 0.204 µM
  TGI: 40.6 µM
MALME-3M melanoma
  TGI: 26.3 µM
RPMI-8226 leukemia
  TGI: 4.67 µM
RXF 393 renal
  GI50: 0.0187 µM
  TGI: 0.0644 µM and 0.0869 µM

## O=C(O)CN(c1ccc(Cl)cc1)S(=O)(=O)c1ccccc1
786-0 renal
  TGI: > 100 µM
ACHN renal
  TGI: > 100 µM
EKVX NSCLC
  TGI: > 100 µM
KM12 colon
  TGI: > 100 µM
MALME-3M melanoma
  TGI: > 100 µM
RPMI-8226 leukemia
  TGI: > 100 µM
RXF 393 renal
  TGI: > 100 µM

## Cc1cc(C)nc(NS(=O)(=O)c2ccc(Nc3c4ccccc4nc4c(C(=O)Nc5ccc(S(N)(=O)=O)cc5)cccc34)cc2)n1
786-0 renal
  TGI: > 100 µM
ACHN renal
  TGI: > 100 µM
EKVX NSCLC
  TGI: 98.2 µM
KM12 colon
  TGI: > 100 µM
MALME-3M melanoma
  TGI: > 100 µM
RPMI-8226 leukemia
  TGI: > 100 µM
RXF 393 renal
  TGI: > 100 µM

## N[C@H]1C2C3CC4C5CC(C42)C1(c1ccccc1)C53 (some centres undefined)
786-0 renal
  TGI: > 100 µM
ACHN renal
  TGI: > 100 µM
EKVX NSCLC
  TGI: > 100 µM
KM12 colon
  TGI: > 100 µM
MALME-3M melanoma
  TGI: > 100 µM
RPMI-8226 leukemia
  TGI: > 100 µM
RXF 393 renal
  TGI: > 100 µM

## COc1cccc(NC(=O)c2sc3nc4c(cc3c2N)CCCC4)c1
786-0 renal
  GI50: 0.42 µM
  TGI: 19.2 µM
ACHN renal
  GI50: 0.953 µM
  TGI: > 100 µM
BT-549 breast
  GI50: 0.497 µM
  TGI: 25.4 µM
DU-145 prostate
  GI50: 0.542 µM
  TGI: 56.1 µM
KM12 colon
  GI50: 0.414 µM
  TGI: > 100 µM
NCI/ADR-RES ovarian
  GI50: 0.485 µM
  TGI: > 100 µM
RPMI-8226 leukemia
  GI50: 0.396 µM
  TGI: 78.3 µM
RXF 393 renal
  GI50: 0.365 µM
  TGI: 3.34 µM

## NC(N)=NS(=O)(=O)c1ccc(NC(=O)c2cccc3c(Nc4ccc(S(=O)(=O)N=C(N)N)cc4)c4ccc(Cl)cc4nc23)cc1
786-0 renal
  TGI: > 100 µM
ACHN renal
  TGI: > 100 µM
EKVX NSCLC
  TGI: > 100 µM
KM12 colon
  TGI: > 100 µM
MALME-3M melanoma
  TGI: > 100 µM
RPMI-8226 leukemia
  TGI: > 100 µM
RXF 393 renal
  TGI: > 100 µM

## COc1c(OC(C)=O)ccc(/C=C2\N=C(C)OC2=O)c1[N+](=O)[O-]
786-0 renal
  TGI: > 100 µM
ACHN renal
  TGI: > 100 µM
KM12 colon
  TGI: > 100 µM
MALME-3M melanoma
  TGI: > 100 µM
RPMI-8226 leukemia
  TGI: > 100 µM
RXF 393 renal
  TGI: > 100 µM

## CC1(C)N=C(N)N=C(N)N1c1cccc(/C=C/C=C/c2cccc([N+](=O)[O-])c2)c1
786-0 renal
  GI50: 21.3 µM
  TGI: 52.9 µM
ACHN renal
  GI50: 75.7 µM
  TGI: > 100 µM
BT-549 breast
  GI50: 6.91 µM
  TGI: 23.8 µM
DU-145 prostate
  GI50: 7.5 µM
  TGI: 20.2 µM
KM12 colon
  GI50: 2.59 µM
  TGI: 15.5 µM
NCI/ADR-RES ovarian
  GI50: > 100 µM
  TGI: > 100 µM
RPMI-8226 leukemia
  GI50: 1.31 µM
  TGI: 16.3 µM
RXF 393 renal
  GI50: 17.4 µM
  TGI: > 100 µM

## O=[N+]([O-])c1ccc(-c2ccc(/C=N/n3c(-c4ccc(Cl)cc4)n[nH]c3=S)o2)cc1
786-0 renal
  TGI: 46.2 µM
ACHN renal
  TGI: > 60.8 µM
EKVX NSCLC
  TGI: > 100 µM
KM12 colon
  TGI: 61.4 µM
MALME-3M melanoma
  TGI: 43.1 µM
RPMI-8226 leukemia
  TGI: > 31.6 µM

## Nc1ccn(C=C=CCO)c(=O)n1
786-0 renal
  GI50: > 1000 µM
  TGI: > 1000 µM
ACHN renal
  GI50: > 1000 µM
  TGI: > 1000 µM
BT-549 breast
  GI50: > 1000 µM
  TGI: > 1000 µM
DU-145 prostate
  GI50: > 1000 µM
  TGI: > 1000 µM
EKVX NSCLC
  GI50: > 1000 µM
  TGI: > 1000 µM
KM12 colon
  GI50: > 1000 µM
  TGI: > 1000 µM
MALME-3M melanoma
  GI50: > 1000 µM
  TGI: > 1000 µM
NCI/ADR-RES ovarian
  GI50: > 1000 µM
  TGI: > 1000 µM
RPMI-8226 leukemia
  TGI: > 1000 µM

## COC1C=C(Nc2cccc(Cl)c2)C(=O)C1 (centres undefined)
786-0 renal
  TGI: > 100 µM
ACHN renal
  TGI: > 100 µM
EKVX NSCLC
  TGI: 55.3 µM
KM12 colon
  TGI: > 100 µM
MALME-3M melanoma
  TGI: > 100 µM
RXF 393 renal
  TGI: 92.9 µM

## CCOC(=O)CCC(NC(=O)c1ccc(N=Cc2nc3cc(C(F)(F)F)ccc3nc2-c2ccccc2)cc1)C(=O)OCC (centres undefined)
786-0 renal
  GI50: 30.8 µM
  TGI: 18.9 µM and > 100 µM
ACHN renal
  GI50: 46.3 µM
  TGI: 50 µM and > 100 µM
DU-145 prostate
  TGI: 50 µM
EKVX NSCLC
  GI50: > 100 µM
  TGI: 50 µM and > 100 µM
KM12 colon
  GI50: > 100 µM
  TGI: 50 µM and > 100 µM
MALME-3M melanoma
  GI50: > 100 µM
  TGI: 22.7 µM and > 100 µM
RPMI-8226 leukemia
  GI50: > 100 µM
  TGI: > 100 µM
RXF 393 renal
  GI50: 3.1 µM
  TGI: 17.2 µM and 20.2 µM

## CC(=O)Oc1c(C)n(CCCl)ccc1=O
786-0 renal
  TGI: > 100 µM
ACHN renal
  TGI: > 100 µM
EKVX NSCLC
  TGI: > 100 µM
KM12 colon
  TGI: > 100 µM
MALME-3M melanoma
  TGI: > 100 µM
RPMI-8226 leukemia
  TGI: > 100 µM
RXF 393 renal
  TGI: > 100 µM

## S=c1[nH]nc(COc2ccc(Cl)cc2)o1
786-0 renal
  TGI: > 100 µM
ACHN renal
  TGI: > 100 µM
EKVX NSCLC
  TGI: > 100 µM
KM12 colon
  TGI: > 100 µM
MALME-3M melanoma
  TGI: > 100 µM
RPMI-8226 leukemia
  TGI: > 100 µM

## C/C(=N\N(C)C)c1sc(-n2nc(-c3ccccc3)cc2-c2ccccc2)nc1C
786-0 renal
  TGI: > 100 µM
ACHN renal
  TGI: > 100 µM
EKVX NSCLC
  TGI: > 100 µM
KM12 colon
  TGI: > 100 µM
MALME-3M melanoma
  TGI: > 100 µM
RXF 393 renal
  TGI: > 100 µM
